Several values for one entry are separate records, joined by “and”; a condition that tells them apart may be missing. Equal entries are not always repeated.
What was measured:
[1] = test system: HepG2 cells; assay: Hepatotoxicity assay, HepG2 cell viability (PrestoBlue, ToxiLight); format: cell-based, human; details: concentrations up to 50 μM; viability assay and ToxiLight
Description: (§1) Hepatotoxiticy assay was conducted according to our previously described procedures.[42]Cell culture and treatment: The human hepatocellular carcinoma (HepG2) cell line was acquired from ATCC, Manassas, USA (HB-8065), and maintained according to the manufacturer’s ATCC protocol. Cell culture conditions included a medium consisting of Dulbecco’s modified Eagle’s medium (DMEM, Merck), 10% fetal bovine serum, […], 100 IU/mL penicillin (acquired from ThermoFisher), humidified atmosphere containing 5% of carbon dioxide, temperature of 37 °C. The stock solution of the tested compound was prepared in DMSO (10 mM) and next diluted with buffered phosphate saline (PBS, Merck). Cell membrane damage was examined with the use of a ToxiLight bioassay (Lonza), rendering the manufacturer’s protocol described previously.[42] A culture medium containing 10% Triton X-100 (Merck) was used as the positive control of cell damage, while the negative control contained solely vehicle. After incubating for 5 min, the luminescence was examined with the plate reader POLARstar Omega (BMG Labtech). The results were expressed as a percentage of the positive control, which was defined as the percentage of dead cells relative to the control sample. Cell viability assay: The viability of cells was examined with the use of the PrestoBlue reagent (ThermoFisher) and protocol provided by the manufacturer. After incubating for 24 h with the examined compounds, one-tenth of the remaining medium volume was mixed with the reagent (PrestoBlue) in a microplate well. Following incubation at 37 °C during 15 min, the fluorescence (EX 530; EM 580 nm) was measured using the plate reader POLARstar Omega, (BMG Labtech). The viability values obtained are presented as a percentage of live cells relative to the DMSO (control sample). The GraphPad program was used to perform the statistical analysis. The mean values with their corresponding coefficient of variation (CV) were reported for all data. The differences between the groups were analyzed using one-way analysis of variance (ANOVA) followed by Dunnett’s multiple comparison tests as post hoc analysis. The statistical significance: p < 0.05.

[2] = as above; format: cell-based, human; details: human, HepG2 cells, 24 h, read-out: viability of cells, MEAN (percentage of control, live cells)
Description: as §1

[3] = Parallel artificial membrane permeability assay (PAMPA); format: in vitro ADME; details: tested at 10^–5 M, PAMPA Plate System Gentest
Description: To estimate the passive transport through cell membranes, we used specialized PAMPA Plate System Gentest acquired from Corning (Tewksbury, MA, USA). The assay was performed as described in the manufacturer’s protocol. The quantitative measurements of tested molecules in apical and basolateral wells were conducted using LC/MS (Waters ACQUITY TQD system with the TQ detector, Milford, USA) and a specific internal standard. The Pe permeability coefficient was calculated rendering the formulas described previously[47],[47] and compared to the reference compound sulpiride.

[4] = target: muscimol site of the GABA-A receptor; assay: Radioligand binding assay for GABA-A receptor ([3H]muscimol displacement, rat brain homogenate); details: competitive replacement of [3H]muscimol; ±S.E.M.
Description: The study was acquired according to the earlier protocols.[39] The rats’ brains were homogenized and prepared accurately according to the previous protocol.[39] On the day of the study, brain homogenates were thawed at room temperature and “diluted” in 20 volumes of ice-cold 50 mM Tris-HCl buffer (pH 7.4) and centrifuged (20.000g, 30 min, 0–4 °C). The assay was performed directly on 96-well microplates, which contained 50 mM Tris-HCl buffer (pH 7.4) in a total volume of 300 μL. Reaction mix included 240 μL of the brain tissue suspension, 30 μL of [^3H]-muscimol, and 30 μL solution of tested compounds (administrated at various concentrations: 10^–10–10^–5 M). […] The 96-well microplates containing the reaction mix were incubated for 10 min at 0 °C, followed by rapid filtration over glass fiber filters FilterMate B (PerkinElmer, USA) using the Harvester-96 MACH III FM (Tomtec, USA). The filter mats were dried using a microwave and then placed inside a plastic bag (PerkinElmer, USA). After that, they were soaked in 10 mL of Ultima Gold MV liquid scintillation cocktail (PerkinElmer, USA). […] Ki values were estimated according to the Cheng and Prusoff equation. The study was performed in duplicates. The statistical analysis was performed using (GraphPad Prism, version 4.0, San Diego, CA, USA).

[5] = test system: human α1β2γ2-GABA-A receptors; assay: Electrophysiological studies, automated patch clamp (QPatch16X), HEK293 cells; format: cell-based; details: agonist mode, compound at 10 μM; current amplitude normalized to 10 μM GABA response; ±S.E.M.
Description: Electrophysiological studies were acquired using the QPatch16X automatic patch clamp platform (Sophion Biosciences) as described before.[42],[43] […] Before the assay, cells were detached from the culture flask by treating them with TrypLE Express solution (Life Technologies) and subsequently suspended in serum-free media. The cells were loaded into a 1.5 mL microtube on the automated electrophysiology instrument, which subsequently performed a spin-down using its built-in centrifuge. Following this, the cells were washed with Ringer’s extracellular solution. The cells were moved to the pipetting wells of a 16-channel planar patch chip plate (QPlate 16X) designed for single-use. A combined suction/voltage protocol was then applied to establish gigaseals. […] During the entire whole-cell recording, the holding potential was maintained at −90 mV. […] The intracellular solution contained 140 mM CsF, 1 mM EGTA, 5 mM CsOH, 10 mM HEPES, 20 mMNaCl (pH 7.2, 320 mOsm). […] The acquired data were examined with QPatch assay software (v5.0, Sophion Biosciences)[44] and are represented as the mean of three separated measurements performed on distinct cells. The efficacy of the tested molecules was determined by calculating the baseline-corrected ratio of the maximum current amplitudes elicited by the tested compounds and the reference agonist (T1-ATG/AG1-ATG or T2-ATG/AG1-ATG). The raw current recordings were standardized and presented as a percentage of the current amplitude evoked by the reference agonist, using the QPatch assay software (v5.0, Sophion Biosciences).

Cc1c(OCc2ccccc2)cccc1N1CCN(CCOC(=O)CCCN)CC1.Cl.Cl [Compound 16, 1-(2-((4-Ammoniobutanoyl)oxy)ethyl)-4-(3-(benzyloxy)-2-methylphenyl)piperazin-1-ium Dichloride]
reduction of HepG2 viability [1]: not significant reduction of viability | viability at 24 h, 1 µM ([2]; HepG2, 1 µM): 102% | viability at 24 h, 10 µM ([2]; HepG2, 10 µM): 104% | viability at 24 h, 50 µM ([2]; HepG2, 50 µM): 102% | viability at 24 h, 100 µM ([2]; HepG2, 100 µM): 14% | Papp [3]: 6.24 ×10⁻⁶ cm/s | Ki [4]: 147 ± 12.7 nM | [%] of 10 μM GABA activity [5]: 24.7% and 24.7 ± 1.5%
